From ChEMBL document CHEMBL3045459 (Med Chem Res, 2013)
Converted amounts (≈) assume the structure as drawn. The source made the active and inactive calls. The rule behind the calls is not given here.

Key:
Type in all cases: functional
Escherichia coli = experiment: Antibacterial activity against Escherichia coli assessed as growth inhibition after 24 hr by agar well diffusion method
Bacillus subtilis = experiment: Antibacterial activity against Bacillus subtilis assessed as growth inhibition after 24 hr by agar well diffusion method
Aspergillus flavus = experiment: Antifungal activity against Aspergillus flavus assessed as growth inhibition after 48 hr by broth dilution method
Aspergillus fumigatus = experiment: Antifungal activity against Aspergillus fumigatus assessed as growth inhibition after 48 hr by broth dilution method
Alternaria alternata = experiment: Antifungal activity against Alternaria alternata assessed as growth inhibition after 48 hr by broth dilution method
Salmonella typhi = experiment: Antibacterial activity against Salmonella enterica subsp. enterica serovar Typhi assessed as growth inhibition after 24 hr by agar well diffusion method
Pseudomonas aeruginosa = experiment: Antibacterial activity against Pseudomonas aeruginosa assessed as growth inhibition after 24 hr by agar well diffusion method
Shigella flexneri = experiment: Antibacterial activity against Shigella flexneri assessed as growth inhibition after 24 hr by agar well diffusion method; as to DIZ: test concentration or dose not given here
Staphylococcus aureus = experiment: Antibacterial activity against Staphylococcus aureus assessed as growth inhibition after 24 hr by agar well diffusion method

Structure (SMILES)	diameter of the inhibition zone (DIZ) (Escherichia coli) [mm]	growth inhibition (GI) (Bacillus subtilis)	MIC (Aspergillus flavus) [µg/mL]	MIC (Aspergillus fumigatus) [µg/mL]	MIC (Alternaria alternata) [µg/mL]	growth inhibition (GI) (Salmonella typhi)	growth inhibition (GI) (Pseudomonas aeruginosa)	diameter of the inhibition zone (DIZ) (Shigella flexneri) [mm]	diameter of the inhibition zone (DIZ) (Staphylococcus aureus) [mm]	diameter of the inhibition zone (DIZ) (Bacillus subtilis) [mm]	diameter of the inhibition zone (DIZ) (Pseudomonas aeruginosa) [mm]	growth inhibition (GI) (Staphylococcus aureus)	growth inhibition (GI) (Shigella flexneri)	diameter of the inhibition zone (DIZ) (Salmonella typhi) [mm]
Nc1nc(-c2ccc(-n3ccnc3)cc2)cc(-c2ccc(Cl)cc2Cl)n1	14	inactive	> 1000	> 1000	1000 (≈ 2620 µM)	inactive	inactive	10	11	–	–	–	–	–
COc1ccc(-c2cc(-c3ccc(-n4ccnc4)cc3)nc(N)n2)cc1	12	–	> 1000	1000 (≈ 2910 µM)	> 1000	inactive	–	11	–	14	11	inactive	–	–
Nc1nc(-c2ccc(I)cc2)cc(-c2ccc(-n3ccnc3)cc2)n1	20	–	1000 (≈ 2280 µM)	1000 (≈ 2280 µM)	1000 (≈ 2280 µM)	inactive	inactive	–	16	21	–	–	inactive	–
COc1cccc(-c2cc(-c3ccc(-n4ccnc4)cc3)nc(N)n2)c1	13	inactive	1000 (≈ 2910 µM)	> 1000	1000 (≈ 2910 µM)	inactive	–	–	14	–	12	–	inactive	–
C[C@@H](O)[C@H]1C(=O)N2C(C(=O)O)=C(SCCNC=N)C[C@H]12 [IMIPENEM ANHYDROUS]	35	–	–	–	–	–	–	30	30	30	31	–	–	25
Nc1nc(-c2ccccc2)cc(-c2ccc(-n3ccnc3)cc2)n1	11	–	1000 (≈ 3190 µM)	1000 (≈ 3190 µM)	> 1000	inactive	inactive	–	–	13	–	inactive	inactive	–
COc1cc(-c2cc(-c3ccc(-n4ccnc4)cc3)nc(N)n2)ccc1OO	15	inactive	1000 (≈ 2660 µM)	> 1000	> 1000	inactive	–	–	13	–	10	–	inactive	–
Nc1nc(-c2ccc(Cl)cc2)cc(-c2ccc(-n3ccnc3)cc2)n1	18	–	1000 (≈ 2880 µM)	1000 (≈ 2880 µM)	1000 (≈ 2880 µM)	inactive	inactive	11	–	12	–	inactive	–	–
Nc1nc(-c2ccc(F)cc2)cc(-c2ccc(-n3ccnc3)cc2)n1	16	inactive	1000 (≈ 3020 µM)	500 (≈ 1510 µM)	1000 (≈ 3020 µM)	inactive	inactive	12	–	–	–	inactive	–	–
Nc1nc(-c2ccc(Br)cc2)cc(-c2ccc(-n3ccnc3)cc2)n1	12	–	1000 (≈ 2550 µM)	1000 (≈ 2550 µM)	> 1000	inactive	inactive	12	12	13	–	–	–	–
Nc1nc(-c2ccc(-n3ccnc3)cc2)cc(-c2ccc(Cl)c(Cl)c2Cl)n1	18	–	> 1000	> 1000	> 1000	inactive	inactive	11	15	15	–	–	–	–
Nc1nc(-c2ccc(-n3ccnc3)cc2)cc(-c2cc(Cl)ccc2Cl)n1	12	–	> 1000	> 1000	> 1000	inactive	inactive	12	–	12	–	inactive	–	–
